According to ChEMBL document CHEMBL4145520, “Small-molecule Mcl-1 inhibitors: Emerging anti-tumor agents” (Eur J Med Chem, 2018):
One block for each molecule: values may come before it.

How the values were obtained:
[1] = target: T1, Induced myeloid leukemia cell differentiation protein Mcl-1 (Homo sapiens, UniProt Q07820); test: Binding affinity to MCL1 (unknown origin) by surface plasma resonance method
[2] = target: T1, Induced myeloid leukemia cell differentiation protein Mcl-1; test: Inhibition of FITC-BAK binding to His6 tagged MBP fused recombinant human MCL1 (172 to 327 residues) expressed in Escherichia coli by fluorescence polarization competition assay
A-375 = test: Growth inhibition of human A375 cells after 48 hrs by CellTiter-Blue assay; assay type: functional; conditions: A-375, 48 h
[3] = target: T1, Induced myeloid leukemia cell differentiation protein Mcl-1; test: Inhibition of N-terminal 26 residues truncated 5-FAM labelled Bid-BH3 binding to MCL1 (unknown origin) by fluorescence polarization assay
[4] = Induction of apoptosis in human MOLP8 cells assessed as caspase 3/7 activation after 2 hrs by caspase-Glo 3/7 assay; assay type: functional, cell-based; conditions: MOLP-8, 2 h
[5] = target: T1, Induced myeloid leukemia cell differentiation protein Mcl-1; test: Inhibition of FAM labelled Bid-BH3 binding to N-terminal GST-tagged human recombinant MCL1 expressed in Escherichia coli […] after 60 mins by TR-FRET assay
[6] = target: T1, Induced myeloid leukemia cell differentiation protein Mcl-1; test: Inhibition of FITC-BAK binding to MCL1 (172 to 327 residues) (unknown origin) by fluorescence polarization assay
RS4-11 [7] = test: Cytotoxicity against human RS4:11 cells assessed as reduction in cell viability after 72 hrs; assay type: functional, cell-based; conditions: RS4-11, 72 h
HeLa = test: Cytotoxicity against human HeLa cells assessed as reduction in cell viability after 72 hrs; assay type: functional, cell-based
Bcl-2-like protein 1 [8] = target: T2, Bcl-2-like protein 1 (Homo sapiens, UniProt Q07817); test: Inhibition of biotin labelled Bid-BH3 binding to C-terminal GST-tagged human BCL-XL […] expressed in Escherichia coli BL21 (DE3) preincubated for 1 hr followed by followed by biotin labelled Bid-BH3 addition measured after 2 hrs by ELISA
RS4-11 [9] = test: Cytotoxicity against human RS4:11 cells assessed as reduction in cell viability; assay type: functional, cell-based
[10] = target: T1, Induced myeloid leukemia cell differentiation protein Mcl-1; test: Inhibition of Mcl-1 (unknown origin) by TR-FRET assay
[11] = target: T1, Induced myeloid leukemia cell differentiation protein Mcl-1; test: Inhibition of His6 tagged MBP fused Mcl-1 (unknown origin) after 0.5 hrs by fluorescence polarization assay
B-ALL = test: Cytotoxicity against human B-ALL cells assessed as reduction in cell viability after 24 hrs by CellTiter-Glo luminescent assay; assay type: functional, cell-based
[12] = Inhibition of recombinant FITC tagged Bid-BH3 binding to BCL-XL deltaC (unknown origin) expressed in Escherichia coli BL21 (DE3) by fluorescence polarization assay; design: species or system Homo sapiens
Bcl-2-like protein 1 [13] = target: T2, Bcl-2-like protein 1; test: Inhibition of biotin labelled Bid-BH3 binding to GST-tagged BCL-XL (unknown origin) preincubated for 15 mins followed by biotin labelled Bid-BH3 addition measured after 2 hrs by ELISA
MDA-MB-468 = test: Cytotoxicity against human MDA-MB-468 cells assessed as reduction in cell viability by MTT assay; assay type: functional, cell-based
NCI-H23 = test: Antiproliferative activity against human NCI-H23 cells after 48 hrs by CellTiter-Glo assay; assay type: functional, cell-based; conditions: NCI-H23, 48 h
[14] = Antiproliferative activity against human NCI-H2110 cells after 48 hrs by CellTiter-Glo assay; assay type: functional, cell-based; conditions: NCI-H2110, 48 h
[15] = target: T1, Induced myeloid leukemia cell differentiation protein Mcl-1; test: Displacement of FAM labelled Bid-derived peptide from MCL1 (unknown origin) incubated for 1 min by fluorescence polarization assay
HL-60 = test: Induction of apoptosis in human HL60 cells after 48 hrs by Annexin V-FITC staining based flow cytometry; assay type: functional, cell-based; conditions: HL-60, 48 h
[16] = Selectivity ratio of IC50 for human HL60 cells to IC50 for human NCI-H345 cells; assay type: functional
[17] = target: Apoptosis regulator Bcl-2 (Homo sapiens, UniProt P10415); test: Displacement of FAM labelled Bid-derived peptide from Bcl-2 (unknown origin) incubated for 1 min by fluorescence polarization assay
NCI-H345 = test: Induction of apoptosis in human NCI-H345 cells after 48 hrs by Annexin V-FITC staining based flow cytometry; assay type: functional, cell-based; conditions: NCI-H345, 48 h
Homo sapiens = species on record: Homo sapiens; test: Selectivity ratio of Ki for Bcl-2 (unknown origin) to Ki for MCL1 (unknown origin)

T1 sequence (Q07820 whole entry, the tested form may be a part): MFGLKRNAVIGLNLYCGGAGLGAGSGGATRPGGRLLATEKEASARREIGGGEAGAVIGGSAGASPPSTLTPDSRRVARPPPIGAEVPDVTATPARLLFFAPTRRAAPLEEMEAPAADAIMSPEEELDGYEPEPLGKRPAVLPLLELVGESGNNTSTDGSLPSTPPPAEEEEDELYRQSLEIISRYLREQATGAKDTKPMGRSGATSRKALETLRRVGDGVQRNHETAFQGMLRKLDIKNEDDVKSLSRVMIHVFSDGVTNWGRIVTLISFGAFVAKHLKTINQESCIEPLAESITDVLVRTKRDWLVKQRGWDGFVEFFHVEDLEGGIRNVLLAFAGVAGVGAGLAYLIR
T2 sequence (Q07817 whole entry): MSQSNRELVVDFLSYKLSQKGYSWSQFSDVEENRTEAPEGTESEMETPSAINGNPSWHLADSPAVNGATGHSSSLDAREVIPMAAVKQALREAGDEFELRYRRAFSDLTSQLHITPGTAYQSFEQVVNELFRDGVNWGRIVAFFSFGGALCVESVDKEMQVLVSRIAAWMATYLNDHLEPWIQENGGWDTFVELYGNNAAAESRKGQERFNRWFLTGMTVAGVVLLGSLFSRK
Sequence of Apoptosis regulator Bcl-2 (P10415 whole entry): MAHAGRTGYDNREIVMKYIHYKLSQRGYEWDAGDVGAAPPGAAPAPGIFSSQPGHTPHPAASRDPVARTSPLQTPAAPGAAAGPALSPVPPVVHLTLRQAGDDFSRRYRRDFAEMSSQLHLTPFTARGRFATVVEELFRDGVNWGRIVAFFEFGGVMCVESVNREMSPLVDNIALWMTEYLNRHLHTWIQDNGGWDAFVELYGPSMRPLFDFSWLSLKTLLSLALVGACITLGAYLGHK

Structure (SMILES): N#CC1=C(NCCC(=O)O)c2ccc(Sc3ccc(Br)cc3)c3cccc(c23)C1=O
Kd [1]: 150 nM

Structure (SMILES): COc1cc(NC(=O)CCC(=O)N2CCN(Cc3cccc(-c4ccc(Cl)cc4)c3)CC2)cc(OC)c1OC
Ki [3]: 320 nM

Structure (SMILES): COc1cc(CC(=O)NCc2ccc(C(=O)N3CCN(Cc4ccccc4-c4ccccc4)CC3)cc2)cc(OC)c1OC
Ki [3]: 180 nM

Structure (SMILES): Cc1cc(Oc2ccc(C(=O)O)c(OCc3ccccc3)n2)cc(C)c1Cl
Ki [6]: 2900 nM

Structure (SMILES): O=C(c1ccccc1O)c1[nH]c(Cl)c(Cl)c1-n1c(C(=O)c2ccccc2O)cc(Cl)c1Cl
IC50 (RS4-11 [7]): 2000 nM
IC50 (HeLa): 20 µM
IC50 (Bcl-2-like protein 1 [8]): > 80 µM

Structure (SMILES): CC(=O)c1cccc(OCc2nn(C)c(C)c2-c2cccc3c(CCCOc4cccc5ccccc45)c(C(=O)O)[nH]c23)c1
EC50 [4]: 2700 nM

Structure (SMILES): O=C(O)c1[nH]c2ccccc2c1CCCCC1CCCCC1
EC50 (NCI-H23): 7.2 µM
EC50 [14]: 5.3 µM

Structure (SMILES): CCc1nn(C)c(CC)c1-c1cccc2c(CCCOc3cccc4ccccc34)c(C(=O)O)n(CCN3CCOCC3)c12
EC50 [4]: 350 nM

Structure (SMILES): Cc1c(-c2cccc3c(CCCOc4cccc5ccccc45)c(C(=O)O)n(C)c23)c(COc2ccc(B(O)O)c(C=O)c2)nn1C
EC50 [4]: 75 nM

Structure (SMILES): O=C(O)c1cc2ccccc2n1S(=O)(=O)c1ccc(OCc2cccc(Cl)c2)cc1
Ki [15]: 480 nM
IC50 (HL-60): 63.3 µM
Ratio IC50 [16]: 30
Ki [17]: 3.6 µM
IC50 (NCI-H345): 2200 nM
Ratio Ki (Homo sapiens): 7.5

Further lines, with some results ahead:

Ki [2]: 120 nM
GI50 (A-375): 50 µM
Structure (SMILES): Cc1cc(Oc2ccc(S(=O)(=O)N3CC(C(=O)O)Cc4ccccc43)cc2)cc(C)c1Cl (stereo not drawn)

EC50 [4]: > 11000 nM
IC50 [5]: 162 nM
Structure (SMILES): Cc1c(-c2cccc3c(CCCOc4cccc5ccccc45)c(C(=O)O)[nH]c23)c(COc2ccc(B(O)O)cc2)nn1C

EC50 [4]: > 11000 nM
Structure (SMILES): Cc1c(-c2cccc3c(CCCOc4cccc5ccccc45)c(C(=O)O)[nH]c23)c(COc2ccccc2)nn1C

EC50 [4]: 170 nM
Structure (SMILES): CC(=O)c1cc(OCc2nn(C)c(C)c2-c2cccc3c(CCCOc4cccc5ccccc45)c(C(=O)O)[nH]c23)ccc1B(O)O

Ki [10]: > 444 nM
Structure (SMILES): CC1(C)CCC(CN2CCN(c3ccc(C(=O)NS(=O)(=O)c4ccc(NCC5CCOCC5)c([N+](=O)[O-])c4)c(Oc4cnc5[nH]ccc5c4)c3)CC2)=C(c2ccc(Cl)cc2)C1 [VENETOCLAX]
IC50 (RS4-11 [9]): 1.5 to 5 nM

Ki [11]: < 1 nM
Structure (SMILES): Cc1cc(OCCCc2c3n(c4c(-c5c(C)nn(C)c5C)c(Cl)ccc24)CCCC(c2cc(C(=O)O)c4ccn(C)c4c2)C3=O)cc(C)c1Cl (stereo not drawn)

EC50 [4]: 460 nM
Structure (SMILES): Cc1c(-c2cccc3c(CCCOc4cccc5ccccc45)c(C(=O)O)[nH]c23)c(COc2ccc(B(O)O)c(C=O)c2)nn1C

IC50 [12]: > 50 µM
Structure (SMILES): Cc1cs/c(=N\C2CCCCC2)n1/N=C/c1ccc(O)c(O)c1O
IC50 (B-ALL): 4.2 µM

IC50 (Bcl-2-like protein 1 [13]): > 100 µM
Structure (SMILES): O=C(O)CSc1ccc(C(=O)c2[nH]c(Cl)c(Cl)c2-n2c(C(=O)c3ccc(SCC(=O)O)cc3O)cc(Cl)c2Cl)c(O)c1
IC50 (MDA-MB-468): 29 µM

EC50 [4]: > 11000 nM
Structure (SMILES): Cc1c(-c2cccc3c(CCCOc4cccc5ccccc45)c(C(=O)O)[nH]c23)c(COc2cccc(C=O)c2)nn1C
